Experiments:
[1] = target: recombinant JAK1 (amino acids 866-1154) (Homo sapiens (Human), UniProt P23458); test: Enzyme inhibition studies, JAK1 (5 mM ATP, Caliper); format: biochemical
Experimental: (§1) JAK enzyme was expressed as N-terminal GST fusion in insect cells and purified by glutathione-affinity and size-exclusion chromatographies. Enzymes were assayed at their approximated high end of physiological ATP concentration of 5 mM, in the presence of inhibitor dosed at 30, 3, 0.3, 0.03, 0.003 and 0 μM final test concentrations.
(§2) Phosphorylated and unphosphotylated peptides were separated and quantified by a Caliper LC3000 system (Caliper Life Sciences, MA) for calculating percent inhibition.

[2] = target: recombinant JAK3 (amino acids 781-1124) (Homo sapiens (Human), UniProt P52333); test: Enzyme inhibition studies, JAK3 (5 mM ATP, Caliper); format: biochemical
Experimental: as §1, §2

[3] = test system: IL-13 induced STAT6 promotor luciferase reporter in U937 monocytes (U937-STAT6-Luc); test: Cellular interleukin (IL-13) induced JAK-STAT6-luciferase assay (pSTAT6); format: cell-based; conditions: Homo sapiens, U-937; IL-13 induced STAT6-luciferase, U937-STAT6-Luc cells
Experimental: Cells were harvested by centrifugation at 250 g for 5 min and resuspended in Assay buffer (20 mM HEPES, 1×HBSS and 0.1% BSA) to 1000 cells pr μl. For stimulation of cells was used interleukin (IL-13) also dissolved in Assay buffer to […]. […] Test and control compounds were applied to assay plates (low vol white 384-well plates) in serial dilutions from 10 mM to 0.5 nM at 5 nl pr well in DMSO.
To each well was added 4 μl cells and 4 μl interleukin (IL-13) and the plates were sealed and incubated at 37° C. for 4½ h and then at room temperature for 30 min. The assay was developed by addition of 4 μl pr well of SteadyGlo (Promega) and after […] the plates were read at an Envision plate reader with luminescence filter.

[4] = target: recombinant JAK2 (amino acids 831-1132) (Homo sapiens (Human), UniProt O60674); test: Enzyme inhibition studies, JAK2 (5 mM ATP, Caliper); format: biochemical
Experimental: as §1, §2

Sequence of recombinant JAK3 (amino acids 781-1124) (P52333 781-1124): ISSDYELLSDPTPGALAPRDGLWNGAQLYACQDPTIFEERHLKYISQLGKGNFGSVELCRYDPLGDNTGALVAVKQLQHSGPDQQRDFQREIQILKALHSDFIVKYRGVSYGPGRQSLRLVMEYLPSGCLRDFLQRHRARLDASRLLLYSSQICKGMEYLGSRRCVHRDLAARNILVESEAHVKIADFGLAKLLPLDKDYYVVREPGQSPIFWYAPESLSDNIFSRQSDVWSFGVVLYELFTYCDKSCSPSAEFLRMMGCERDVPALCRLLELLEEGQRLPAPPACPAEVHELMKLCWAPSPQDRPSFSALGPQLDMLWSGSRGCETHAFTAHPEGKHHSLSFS
Sequence of recombinant JAK1 (amino acids 866-1154) (P23458 866-1154): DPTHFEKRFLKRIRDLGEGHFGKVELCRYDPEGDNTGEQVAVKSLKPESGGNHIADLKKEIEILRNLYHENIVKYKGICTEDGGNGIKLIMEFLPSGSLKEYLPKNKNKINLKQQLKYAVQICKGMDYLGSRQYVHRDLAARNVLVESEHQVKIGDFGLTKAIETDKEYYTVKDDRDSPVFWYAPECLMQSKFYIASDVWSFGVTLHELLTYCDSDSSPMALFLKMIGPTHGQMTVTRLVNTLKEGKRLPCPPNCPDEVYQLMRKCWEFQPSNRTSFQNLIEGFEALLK
Sequence of recombinant JAK2 (amino acids 831-1132) (O60674 831-1132): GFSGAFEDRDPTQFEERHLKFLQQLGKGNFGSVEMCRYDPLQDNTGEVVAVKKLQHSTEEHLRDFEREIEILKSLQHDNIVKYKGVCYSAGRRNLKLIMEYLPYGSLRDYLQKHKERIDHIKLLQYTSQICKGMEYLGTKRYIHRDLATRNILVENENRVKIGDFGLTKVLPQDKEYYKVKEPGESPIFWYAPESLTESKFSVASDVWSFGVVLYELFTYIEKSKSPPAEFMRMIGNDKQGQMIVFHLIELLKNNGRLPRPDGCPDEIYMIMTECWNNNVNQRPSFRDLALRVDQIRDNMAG

Row | SMILES | IC50 [1] | IC50 [2] | IC50 [3] | IC50 [4]
1 | CC(C(=O)Nc1cccc2c(-c3nc(Nc4cccc(S(C)(=O)=O)c4F)ncc3F)c[nH]c12)N1CCN(C)C[C@H]1C (stereo in doubt) [Example 49, (R)-2-((R)-2,4-dimethylpiperazin-1-yl)-N-(3-(5-fluoro-2-((2-fluoro-3-(methylsulfonyl)phenyl)amino)pyrimidin-4-yl)-1H-indol-7-yl)propanamide] | 13 nM | > 30000 nM | 93 nM | 
2 | CC[C@@H](C(=O)Nc1cccc2c(-c3nc(Nc4cccc(S(C)(=O)=O)c4F)ncc3C)c[nH]c12)N1CCN(C)CC1C (stereo in doubt) [Example 50, (S)-2-((R)-2,4-dimethylpiperazin-1-yl)-N-(3-(2-((2-fluoro-3-(methylsulfonyl)phenyl)amino)-5-methylpyrimidin-4-yl)-1H-indol-7-yl)butanamide] | 48.5 nM | > 30000 nM | 362 nM | > 30000 nM
3 | CC[C@@H](C(=O)Nc1cccc2c(-c3nc(Nc4cccc(S(C)(=O)=O)c4F)ncc3F)c[nH]c12)N1CCN(C)CC1C (stereo in doubt) [Example 52, (S)-2-((R)-2,4-dimethylpiperazin-1-yl)-N-(3-(5-fluoro-2-((2-fluoro-3-(methylsulfonyl)phenyl)amino)pyrimidin-4-yl)-1H-indol-7-yl)butanamide] | 348 nM | > 30000 nM | 1070 nM | > 30000 nM
4 | CC[C@@H](C(=O)Nc1cccc2c(-c3nc(Nc4cccc(S(C)(=O)=O)c4F)ncc3C)c[nH]c12)N1CCN(C)CC1C (stereo in doubt) [Example 61, (S)-2-((S)-2,4-dimethylpiperazin-1-yl)-N-(3-(2-((2-fluoro-3-(methylsulfonyl)phenyl)amino)-5-methylpyrimidin-4-yl)-1H-indol-7-yl)butanamide] | 42.8 nM | > 30000 nM | 163 nM | > 30000 nM
5 | Cc1cnc(Nc2cccc(S(C)(=O)=O)c2F)nc1-c1c[nH]c2c(NC(=O)[C@H](C)N3CCN(C)CC3)cccc12 [Example 6, (S)-N-(3-(2-((2-fluoro-3-(methylsulfonyl)phenyl)amino)-5-methylpyrimidin-4-yl)-1H-indol-7-yl)-2-(4-methylpiperazin-1-yl)propanamide] | 57.4 nM | > 30000 nM | 172 nM | > 30000 nM
6 | COC[C@@H](C(=O)Nc1cccc2c(-c3nc(Nc4cccc(S(C)(=O)=O)c4F)ncc3C)c[nH]c12)N1CCN(C)CC1 [Example 15, (S)-N-(3-(2-((2-fluoro-3-(methylsulfonyl)phenyl)amino)-5-methylpyrimidin-4-yl)-1H-indol-7-yl)-3-methoxy-2-(4-methylpiperazin-1-yl)propanamide] | 213 nM | > 30000 nM | 465 nM | 
7 | COC[C@@H](C(=O)Nc1cccc2c(-c3nc(Nc4cccc(S(C)(=O)=O)c4F)ncc3F)c[nH]c12)N1CCN(C)CC1 [Example 34, (S)-N-(3-(5-fluoro-2-((2-fluoro-3-(methylsulfonyl)phenyl)amino)pyrimidin-4-yl)-1H-indol-7-yl)-3-methoxy-2-(4-methylpiperazin-1-yl)propanamide] | 1840 nM | > 30000 nM | > 4200 nM | 
8 | CCOC[C@H](C(=O)Nc1cccc2c(-c3nc(Nc4cccc(S(C)(=O)=O)c4F)ncc3F)c[nH]c12)N1CCN(C)CC1 [Example 63, (R)-3-ethoxy-N-(3-(5-fluoro-2-((2-fluoro-3-(methylsulfonyl)phenyl)amino)pyrimidin-4-yl)-1H-indol-7-yl)-2-(4-methylpiperazin-1-yl)propanamide] |  |  | 99 nM | 
9 | COC[C@@H](C(=O)Nc1cccc2c(-c3nc(Nc4cccc(S(C)(=O)=O)c4F)ncc3F)c[nH]c12)N1CCNCC1 [Example 67, (S)-N-(3-(5-fluoro-2-(2-fluoro-3-(methylsulfonyl)phenylamino)pyrimidin-4-yl)-1H-indol-7-yl)-3-methoxy-2-(piperazin-1-yl)propanamide] |  |  | 1390 nM | 

Now those with a lower IC50 [3], led by results:

Row | IC50 [1] | IC50 [2] | IC50 [3] | IC50 [4] | SMILES
10 | < 3 nM | > 30000 nM | 24 nM | 612 nM | CC[C@H](C(=O)Nc1cccc2c(-c3nc(Nc4cccc(S(C)(=O)=O)c4F)ncc3C)c[nH]c12)N1CCN(C)CC1C (stereo in doubt) [Example 51, (R)-2-((R)-2,4-dimethylpiperazin-1-yl)-N-(3-(2-((2-fluoro-3-(methylsulfonyl)phenyl)amino)-5-methylpyrimidin-4-yl)-1H-indol-7-yl)butanamide]
11 | < 3 nM | > 30000 nM | 48 nM | 2080 nM | CC[C@H](C(=O)Nc1cccc2c(-c3nc(Nc4cccc(S(C)(=O)=O)c4F)ncc3F)c[nH]c12)N1CCN(C)CC1C (stereo in doubt) [Example 53, (R)-2-((R)-2,4-dimethylpiperazin-1-yl)-N-(3-(5-fluoro-2-((2-fluoro-3-(methylsulfonyl)phenyl)amino)pyrimidin-4-yl)-1H-indol-7-yl)butanamide]
12 | 7.4 nM | > 30000 nM | 64.2 nM | 11900 nM | CC[C@H](C(=O)Nc1cccc2c(-c3nc(Nc4cccc(S(C)(=O)=O)c4F)ncc3C)c[nH]c12)N1CCN(C)CC1C (stereo in doubt) [Example 60, (R)-2-((S)-2,4-dimethylpiperazin-1-yl)-N-(3-(2-((2-fluoro-3-(methylsulfonyl)phenyl)amino)-5-methylpyrimidin-4-yl)-1H-indol-7-yl)butanamide]
13 | < 3 nM | > 30000 nM | 41 nM | 1580 nM | Cc1cnc(Nc2cccc(S(C)(=O)=O)c2F)nc1-c1c[nH]c2c(NC(=O)[C@@H](C)N3CCN(CCO)CC3)cccc12 [Example 1, (R)-N-(3-(2-((2-fluoro-3-(methylsulfonyl)phenyl)amino)-5-methylpyrimidin-4-yl)-1H-indol-7-yl)-2-(4-(2-hydroxyethyl)piperazin-1-yl)propanamide]
14 | ≤ 3 nM | > 30000 nM | 32 nM | 7350 nM | Cc1cnc(Nc2cccc(S(C)(=O)=O)c2F)nc1-c1c[nH]c2c(NC(=O)[C@@H](C)N3CCN(C)CC3)cccc12 [Example 2, (R)-N-(3-(2-((2-fluoro-3-(methylsulfonyl)phenyl)amino)-5-methylpyrimidin-4-yl)-1H-indol-7-yl)-2-(4-methylpiperazin-1-yl)propanamide]
15 | < 3 nM | > 30000 nM | 39 nM | 4120 nM | CCS(=O)(=O)c1cccc(Nc2ncc(C)c(-c3c[nH]c4c(NC(=O)[C@@H](C)N5CCN(C)CC5)cccc34)n2)c1F [Example 3, (R)-N-(3-(2-(3-(ethylsulfonyl)-2-fluorophenylamino)-5-methylpyrimidin-4-yl)-1H-indol-7-yl)-2-(4-methylpiperazin-1-yl)propanamide]
16 | < 3 nM | > 30000 nM | 27 nM | 1600 nM | Cc1cnc(Nc2cccc(S(=O)(=O)C3CC3)c2F)nc1-c1c[nH]c2c(NC(=O)[C@@H](C)N3CCN(C)CC3)cccc12 [Example 4]
17 | 5.1 nM | > 30000 nM | 29 nM | 5020 nM | C[C@H](C(=O)Nc1cccc2c(-c3nc(Nc4cccc(S(C)(=O)=O)c4F)ncc3Cl)c[nH]c12)N1CCN(C)CC1 [Example 5]
18 |  |  | 55 nM |  | Cc1cnc(Nc2cccc(S(C)(=O)=O)c2F)nc1-c1c[nH]c2c(NC(=O)[C@@H](C)N3C[C@H](C)N[C@@H](C)C3)cccc12 [Example 9, (R)-2-((3S,5S)-3,5-dimethylpiperazin-1-yl)-N-(3-(2-((2-fluoro-3-(methylsulfonyl)phenyl)amino)-5-methylpyrimidin-4-yl)-1H-indol-7-yl)propanamide]
19 | < 3 nM | > 30000 nM | 18 nM |  | COC[C@H](C(=O)Nc1cccc2c(-c3nc(Nc4cccc(S(C)(=O)=O)c4F)ncc3C)c[nH]c12)N1CCN(C)CC1 [Example 16, (R)-N-(3-(2-((2-fluoro-3-(methylsulfonyl)phenyl)amino)-5-methylpyrimidin-4-yl)-1H-indol-7-yl)-3-methoxy-2-(4-methylpiperazin-1-yl)propanamide]
20 |  |  | 51 nM |  | CC[C@H](C(=O)Nc1cccc2c(-c3nc(Nc4cccc(S(C)(=O)=O)c4F)ncc3C)c[nH]c12)N1C[C@H](C)N(C)[C@@H](C)C1 [Example 20, (R)-N-(3-(2-((2-fluoro-3-(methylsulfonyl)phenyl)amino)-5-methylpyrimidin-4-yl)-1H-indol-7-yl)-2-((3S,5S)-3,4,5-trimethylpiperazin-1-yl)butanamide]
21 |  |  | 51 nM |  | COC[C@H](C(=O)Nc1cccc2c(-c3nc(Nc4cccc(S(C)(=O)=O)c4F)ncc3F)c[nH]c12)N1CCNCC1 [Example 66, (R)-N-(3-(5-fluoro-2-(2-fluoro-3-(methylsulfonyl)phenylamino)pyrimidin-4-yl)-1H-indol-7-yl)-3-methoxy-2-(piperazin-1-yl)propanamide]

— patent publication US10961228B2, “JAK1 selective inhibitors” (AstraZeneca AB, priority 2017, dated 2021)
